Test results taken from patent US9868746B2, “Substituted 5-aminothieno[2,3-C]pyridazine-6-carboxamide analogs as positive allosteric modulators of the muscarinic acetylcholine receptor M4” (Vanderbilt University, priority 2012, dated 2018).
Read-outs that look alike come from different tables or passages of the source.

Biological target: T1, mAChR M4 (Homo sapiens, UniProt P08173)
T1 construct: expressed in transfected cells; host or cells: CHO-K1 cells stably transfected with M4 cDNA and chimeric G-protein Gqi5
T1 sequence (P08173 1-479): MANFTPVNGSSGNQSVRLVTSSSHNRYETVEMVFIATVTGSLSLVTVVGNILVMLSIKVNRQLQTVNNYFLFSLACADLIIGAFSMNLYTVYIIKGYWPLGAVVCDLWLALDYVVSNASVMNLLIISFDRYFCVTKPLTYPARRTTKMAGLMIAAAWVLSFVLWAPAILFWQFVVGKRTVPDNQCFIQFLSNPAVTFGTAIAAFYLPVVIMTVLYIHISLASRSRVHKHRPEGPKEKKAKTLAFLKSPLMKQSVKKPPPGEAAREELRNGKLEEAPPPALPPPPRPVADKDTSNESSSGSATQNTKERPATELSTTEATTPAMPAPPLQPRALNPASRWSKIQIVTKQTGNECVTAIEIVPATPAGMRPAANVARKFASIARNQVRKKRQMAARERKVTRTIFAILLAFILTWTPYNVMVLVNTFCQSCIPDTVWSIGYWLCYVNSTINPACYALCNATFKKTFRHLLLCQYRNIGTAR
Experiment: mAChR M4 cell-based functional assay (calcium mobilization, potentiation of EC20 acetylcholine response)
Settings: for Emax at 30 µM: % ACh maximum at 30 μM

[1] = mAChR M4 cell-based functional assay, >10,000 estimated for low potency compounds without plateau, read-out: EC50

| Emax at 30 µM [%] | EC50 [1] [nM] | SMILES | EC50 (EC50 (nM)) [nM] |
| --- | --- | --- | --- |
| 71 | 430 | Cc1nnc2sc(C(=O)NC3CCN(C(=O)c4ccc(F)c(F)c4)C3)c(N)c2c1C (centres unmarked) [Example B255] |  |
| 65 | > 10000 | Cc1nnc2sc(C(=O)N3CCC(NS(C)(=O)=O)C3)c(N)c2c1C (centres unmarked) [Example B256] |  |
| 62 | 1100 | Cc1ccc(S(=O)(=O)NC2CCN(C(=O)c3sc4nnc(C)c(C)c4c3N)C2)s1 (centres unmarked) [Example B257] |  |
| 64 | 520 | Cc1nnc2sc(C(=O)NC3CCN(C(=O)CCCc4ccccc4)C3)c(N)c2c1C (centres unmarked) [Example B258] |  |
| 53 | 900 | Cc1nnc2sc(C(=O)N3CC4CN(C(=O)OC(C)(C)C)CC4C3)c(N)c2c1C (centres unmarked) [Example B259] |  |
| 81 | 34 | Cc1nnc2sc(C(=O)NCc3ccc(C(F)F)cc3)c(N)c2c1C [Example B260] |  |
| 53 | 620 | Cc1nnc2sc(C(=O)NC3CCN(c4cccnc4)C3)c(N)c2c1C (centres unmarked) [Example B261] |  |
| 66 | 50 | Cc1nnc2sc(C(=O)N3CC(C4CCCCC4)C3)c(N)c2c1C [Example B262] |  |
| 41 | > 10000 | Cc1nnc2sc(C(=O)N3C[C@@H]4C[C@@H]3CN4C(=O)c3ccccc3)c(N)c2c1C [Example B263] |  |
| 71 | 38 | Cc1nnc2sc(C(=O)NC3CCN(c4ccccc4Cl)C3)c(N)c2c1C (centres unmarked) [Example B264] |  |
| 60 | 120 | Cc1cccc(N2CCC(NC(=O)c3sc4nnc(C)c(C)c4c3N)C2)c1 (centres unmarked) [Example B265] |  |
| 70 | 220 | Cc1nnc2sc(C(=O)NC3CCN(c4ccncc4)C3)c(N)c2c1C (centres unmarked) [Example B266] |  |
| 51 | 5100 | Cc1nnc2sc(C(=O)N3C[C@@H]4C[C@@H]3CN4S(C)(=O)=O)c(N)c2c1C [Example B267] |  |
| 68 | 180 | Cc1nnc2sc(C(=O)NC3CCN(c4cccc(Cl)c4)C3)c(N)c2c1C (centres unmarked) [Example B268] |  |
| 68 | 110 | Cc1ccccc1N1CCC(NC(=O)c2sc3nnc(C)c(C)c3c2N)C1 (centres unmarked) [Example B269] |  |
| 62 | > 10000 | Cc1nnc2sc(C(=O)N3C[C@@H]4C[C@@H]3CN4C(=O)Oc3ccccc3)c(N)c2c1C [Example B270] |  |
| 71 | 3000 | COc1ccccc1N1CCC(NC(=O)c2sc3nnc(C)c(C)c3c2N)C1 (centres unmarked) [Example B271] |  |
| 55 | > 10000 | COC1CCN(C(=O)c2sc3nnc(C)c(C)c3c2N)C1 (centres unmarked) [Example B272] |  |
| 71 | 230 | Cc1nnc2sc(C(=O)NC3CCN(c4ccc(OC(F)(F)F)cc4)C3)c(N)c2c1C (centres unmarked) [Example B273] |  |
| 69 | 41 | Cc1nnc2sc(C(=O)NC3CCN(c4ccc(Cl)cc4)C3)c(N)c2c1C (centres unmarked) [Example B274] |  |
| 65 | 200 | Cc1nnc2sc(C(=O)N3CC(Cc4ccccc4)C3)c(N)c2c1C [Example B275] |  |

| Emax at 30 µM [%] | EC50 [1] [nM] | SMILES | EC50 (EC50 (nM)) [nM] |
| --- | --- | --- | --- |
| 67 | 360 | Cc1nnc2sc(C(=O)NCc3ccc4c(c3)CC(=O)N4)c(N)c2c1C [Example B276] |  |
| 56 | > 10000 | Cc1nnc2sc(C(=O)N3CC4CN(S(C)(=O)=O)CC4C3)c(N)c2c1C (centres unmarked) [Example B277] |  |
| 54 | > 10000 | CC(=O)N1CC2CN(C(=O)c3sc4nnc(C)c(C)c4c3N)CC2C1 (centres unmarked) [Example B278] |  |
| 48 | 4300 | Cc1nnc2sc(C(=O)N3CCC(O)(c4ccccc4)C3)c(N)c2c1C (centres unmarked) [Example B279] |  |
| 46 | 1700 | Cc1nnc2sc(C(=O)N3Cc4ccccc4C3)c(N)c2c1C [Example B280] |  |
| 62 | 2000 | Cc1nnc2sc(C(=O)NC3C4CC5CC(C4)CC3C5)c(N)c2c1C (centres unmarked) [Example B281] |  |
| 80 | 220 | Cc1nnc2sc(C(=O)NC3CCN(c4ccccc4OC(F)(F)F)C3)c(N)c2c1C (centres unmarked) [Example B282] |  |
| 76 | 180 | Cc1nnc2sc(C(=O)NC3CCN(c4ccc(C(F)(F)F)cc4)C3)c(N)c2c1C (centres unmarked) [Example B283] |  |
| 71 | 150 | Cc1nnc2sc(C(=O)NC3CCN(c4ccccc4C(F)(F)F)C3)c(N)c2c1C (centres unmarked) [Example B284] |  |
| 73 | 2500 | CCOC(=O)N1CC2CN(C(=O)c3sc4nnc(C)c(C)c4c3N)CC2C1 (centres unmarked) [Example B285] |  |
| 19 | 4800 | Cc1nnc2sc(C(=O)N3CC4CN(C5CCCC5)CC4C3)c(N)c2c1C (centres unmarked) [Example B286] |  |
| 58 | 250 | Cc1nnc2sc(C(=O)N3CC4CN(c5ccccn5)CC4C3)c(N)c2c1C (centres unmarked) [Example B287] |  |
| 71 | 150 | COc1ccc(CNC(=O)c2sc3nnc(C)c(C)c3c2N)cn1 [Example B288] |  |
| 69 | 230 | COc1cc(CNC(=O)c2sc3nnc(C)c(C)c3c2N)ccn1 [Example B289] |  |
| 45 | 440 | COc1ccc(C2(OC)CN(C(=O)c3sc4nnc(C)c(C)c4c3N)C2)cc1 [Example B290] |  |
| 46 | > 10000 | Cc1nnc2sc(C(=O)N3CC(F)(CCC4OCCCO4)C3)c(N)c2c1C [Example B291] |  |
| 62 | > 10000 | COC1(C)CN(C(=O)c2sc3nnc(C)c(C)c3c2N)C1 [Example B292] |  |
| 46 | 150 | Cc1nnc2sc(C(=O)N3CC(F)(c4cccc(F)c4)C3)c(N)c2c1C [Example B293] |  |
| 43 | 1100 | COc1ccccc1C1(OC)CN(C(=O)c2sc3nnc(C)c(C)c3c2N)C1 [Example B294] |  |
| 54 | > 10000 | Cc1nnc2sc(C(=O)N3CC(F)(c4ccc(Cl)cc4)C3)c(N)c2c1C [Example B295] |  |
| 67 | 280 | Cc1nnc2sc(C(=O)N3CC(F)(C4CCCCC4)C3)c(N)c2c1C [Example B296] |  |

| Emax at 30 µM [%] | EC50 [1] [nM] | SMILES | EC50 (EC50 (nM)) [nM] |
| --- | --- | --- | --- |
| 43 | 4300 | COC1(CCC2OCCCO2)CN(C(=O)c2sc3nnc(C)c(C)c3c2N)C1 [Example B298] |  |
| 35 | 350 | COC1(c2cccc(F)c2)CN(C(=O)c2sc3nnc(C)c(C)c3c2N)C1 [Example B299] |  |
| 52 | 330 | COc1cccc(C2(F)CN(C(=O)c3sc4nnc(C)c(C)c4c3N)C2)c1 [Example B300] |  |
| 48 | 6400 | COc1ccc(C2(NC(=O)c3sc4nnc(C)c(C)c4c3N)CC2)cc1 [Example B301] |  |
| 73 | 860 | Cc1nnc2sc(C(=O)N3CC(C)(F)C3)c(N)c2c1C [Example B302] |  |
| 57 | 500 | Cc1nnc2sc(C(=O)N3CC(F)(c4ccccn4)C3)c(N)c2c1C [Example B303] |  |
| 43 | 1100 | COC1(C2CCCCC2)CN(C(=O)c2sc3nnc(C)c(C)c3c2N)C1 [Example B304] |  |
| 68 | 870 | CCCCC1(OC)CN(C(=O)c2sc3nnc(C)c(C)c3c2N)C1 [Example B305] |  |
| 51 | 1100 | Cc1nnc2sc(C(=O)N3CC(N)(c4ccccc4)C3)c(N)c2c1C [Example B306] |  |
| 55 | 180 | CCCCC1(F)CN(C(=O)c2sc3nnc(C)c(C)c3c2N)C1 [Example B307] |  |
| 42 | 850 | Cc1nnc2sc(C(=O)N3CC(F)(c4cccnc4)C3)c(N)c2c1C [Example B308] |  |
| 39 | 1900 | COc1cccc(C2(OC)CN(C(=O)c3sc4nnc(C)c(C)c4c3N)C2)c1 [Example B310] |  |
| 43 | 180 | Cc1nnc2sc(C(=O)N3CC(N=[N+]=[N-])(c4ccccc4)C3)c(N)c2c1C [Example B311] |  |
| 55 | 2800 | Cc1nnc2sc(C(=O)N3CC(F)(c4ccncc4)C3)c(N)c2c1C [Example B312] |  |
| 84 | 18 | COc1c(F)cc(CNC(=O)c2sc3nnc(C)c(C)c3c2N)cc1F [Example B313] |  |
| 49 | 2800 | COC1(c2ccc(Cl)cc2)CN(C(=O)c2sc3nnc(C)c(C)c3c2N)C1 [Example B314] |  |
| 57 | 840 | COc1ccc2c(c1)CCN(C(=O)c1sc3nnc(C)c(C)c3c1N)C2 [Example B315] |  |
| 73 | 310 | Cc1nnc2sc(C(=O)NCc3cccnc3)c(N)c2c1C [Example B316] |  |
| 47 | 290 | Cc1nnc2sc(C(=O)N3CC(F)(c4cccc(-c5cncnc5)c4)C3)c(N)c2c1C [Example B317] |  |
| 35 | 290 | Cc1nnc2sc(C(=O)N3CC(F)(c4ccc(-c5ccncc5)cc4)C3)c(N)c2c1C [Example B318] |  |

| SMILES | Emax at 30 µM [%] | EC50 [1] [nM] | EC50 (EC50 (nM)) [nM] |
| --- | --- | --- | --- |
| Cc1nnc2sc(C(=O)NCc3ccc(S(F)(F)(F)(F)F)cc3)c(N)c2c1C [Example B297] | 76 |  | 30 |
| Cc1nnc2sc(C(=O)N3CC(NC(=O)Oc4ccccc4)(c4ccccc4)C3)c(N)c2c1C [Example B309] | 48 | > 10000 |  |
